Laboratory results published in article PMC12638379, “An innovative approach to development of new pyrazolylquinolin-2-one hybrids as dual EGFR and BRAF^V600E inhibitors” (Molecular Diversity, 2025).
Read-outs that look alike come from different tables or passages of the source.

System: NCI 60 cancer cell lines
Experiment: NCI anticancer screening over a panel of 60 cancer cells, single concentration 10 µM
Type: cell-based, human
Conditions: Homo sapiens, read-out: Growth inhibition (GI %)
Procedure: Ten final compounds 4a–j and five intermediates 2a–e have been selected by the National Cancer Institute (NCI) for anticancer screening over a panel of 60 cancer cells that cover a variety of histological tissues, including the central nervous system, leukemia, lung, colon, kidney, ovary, breast, and prostate, using the protocol established by the National Cancer Institute (NCI). In a primary screening, each compound was screened at a concentration of 10 µM.
Compounds 2a-e and 4a-j were selected by the National Cancer Institute (NCI) according to the protocol of the Compound Evaluation Branch of the National Cancer Institute, Bethesda, USA, for in vitro anticancer screening which refers in turn to apoptotic activity. The methodology of the NCI anticancer screening has been described in detail elsewhere (http://www.dtp.nci.nih.gov).

[1] = 786-0, Renal cancer 786-0, 10 μM
[2] = A549, Non-small cell lung cancer A549/ATCC, 10 μM
[3] = BT-549, Breast cancer BT-549, 10 μM
[4] = CAKI-1, Renal cancer CAKI-1, 10 μM
[5] = CCRF-CEM, Leukemia CCRF-CEM, 10 μM
[6] = COLO 205, Colon cancer COLO 205, 10 μM
[7] = DU-145, Prostate cancer DU-145, 10 μM
[8] = EKVX, Non-small cell lung cancer EKVX, 10 μM
[9] = HCC 2998, Colon cancer HCC-2998, 10 μM
[10] = HCT-15, Colon cancer HCT-15, 10 μM
[11] = HCT-116, Colon cancer HCT-116, 10 μM
[12] = HL-60, Leukemia HL-60(TB), 10 μM
[13] = HOP-62, Non-small cell lung cancer HOP-62, 10 μM
[14] = HOP-92, Non-small cell lung cancer HOP-92, 10 μM
[15] = HT-29, Colon cancer HT29, 10 μM
[16] = Hs-578T, Breast cancer HS 578T, 10 μM
[17] = IGROV-1, Ovarian cancer IGROV1, 10 μM
[18] = LOX IMVI, Melanoma LOX IMVI, 10 μM
[19] = MDA-MB-231, Breast Cancer MDA-MB 231/ATCC, 10 μM
[20] = MDA-MB-435, Melanoma MDA-MB-435, 10 μM
[21] = MDA-MB-468, Breast cancer MDA-MB-468, 10 μM
[22] = Malme-3M, Melanoma MALME-3M, 10 μM
[23] = NCI-H23, Non-small cell lung cancer NCI-H23, 10 μM
[24] = NCI-H226, Non-small cell lung cancer NCI-H226, 10 μM
[25] = NCI-H322M, Non-small cell lung cancer NCI-H322M, 10 μM
[26] = NCI-H460, Non-small cell lung cancer NCI-H460, 10 μM
[27] = NCI-H522, Non-small cell lung cancer NCI-H522, 10 μM
[28] = NCI/ADR-RES, Ovarian cancer NCI/ADR-RES, 10 μM
[29] = OVCAR-3, Ovarian cancer OVCAR-3, 10 μM
[30] = OVCAR-4, Ovarian cancer OVCAR-4, 10 μM
[31] = OVCAR-5, Ovarian cancer OVCAR-5, 10 μM
[32] = OVCAR-8, Ovarian cancer OVCAR-8, 10 μM
[33] = RPMI-8226, Leukemia RPMI-8226, 10 μM
[34] = RXF 393, Renal cancer RXF 393, 10 μM
[35] = SF-268, CNS Cancer SF-268, 10 μM
[36] = SF-295, CNS Cancer SF-295, 10 μM
[37] = SF-539, CNS Cancer SF-539, 10 μM
[38] = SK-MEL-2, Melanoma SK-MEL-2, 10 μM
[39] = SK-MEL-5, Melanoma SK-MEL-5, 10 μM
[40] = SK-MEL-28, Melanoma SK-MEL-28, 10 μM
[41] = SK-OV-3, Ovarian cancer SK-OV-3, 10 μM
[42] = SN12C, Renal cancer SN12C, 10 μM
[43] = SNB-19, CNS Cancer SNB-19, 10 μM
[44] = SNB-75, CNS Cancer SNB-75, 10 μM
[45] = SW-620, Colon cancer SW-620, 10 μM
[46] = T47D, Breast cancer T-47D, 10 μM
[47] = TK-10, Renal cancer TK-10, 10 μM
[48] = UACC-62, Melanoma UACC-62, 10 μM
[49] = UACC-257, Melanoma UACC-257, 10 μM
[50] = UO-31, Renal cancer UO-31, 10 μM

CC(=O)c1cnn(-c2cc(=O)[nH]c3ccccc23)c1C [Compound 2a, 4-(4-Acetyl-5-methyl-1H-pyrazol-1-yl)quinolin-2(1H)-one]
inhibition at 10 µM [1]: < 5% | inhibition at 10 µM (A498, Renal cancer A498, 10 μM): < 5% | inhibition at 10 µM [2]: 5.98% | inhibition at 10 µM (ACHN, Renal cancer ACHN, 10 μM): 7.82% | inhibition at 10 µM [3]: 6.06% | inhibition at 10 µM [4]: 21.5% | inhibition at 10 µM [5]: 11.3% | inhibition at 10 µM [6]: < 5% | inhibition at 10 µM [7]: < 5% | inhibition at 10 µM [8]: 54.4% | inhibition at 10 µM [9]: < 5% | inhibition at 10 µM [10]: < 5% | inhibition at 10 µM [11]: < 5% | inhibition at 10 µM [12]: 6.26% | inhibition at 10 µM [13]: 22.9% | inhibition at 10 µM [14]: 25.1% | inhibition at 10 µM [15]: < 5% | inhibition at 10 µM [16]: 8.26% | inhibition at 10 µM [17]: 37.9% | inhibition at 10 µM (K562, Leukemia K-562, 10 μM): 9.72% | inhibition at 10 µM (KM12, Colon cancer KM12, 10 μM): < 5% | inhibition at 10 µM [18]: 15.6% | inhibition at 10 µM (Leukemia SR, 10 μM): 5.8% | inhibition at 10 µM (MCF7, Breast cancer MCF7, 10 μM): 17.3% | inhibition at 10 µM [19]: 26.9% | inhibition at 10 µM [20]: < 5% | inhibition at 10 µM [21]: < 5% | inhibition at 10 µM (MOLT-4, Leukemia MOLT-4, 10 μM): 7.63% | inhibition at 10 µM [22]: 11.3% | inhibition at 10 µM (Melanoma M14, 10 μM): < 5% | inhibition at 10 µM [23]: 10.3% | inhibition at 10 µM [24]: 32.4% | inhibition at 10 µM [25]: 16.1% | inhibition at 10 µM [26]: < 5% | inhibition at 10 µM [27]: 10.3% | inhibition at 10 µM [28]: 8.35% | inhibition at 10 µM [29]: < 5% | inhibition at 10 µM [30]: < 5% | inhibition at 10 µM [31]: < 5% | inhibition at 10 µM [32]: < 5% | inhibition at 10 µM (Prostate cancer PC-3, 10 μM): 15.2% | inhibition at 10 µM [33]: 26.6% | inhibition at 10 µM [34]: < 5% | inhibition at 10 µM [35]: < 5% | inhibition at 10 µM [36]: 6.24% | inhibition at 10 µM [37]: 13% | inhibition at 10 µM [38]: < 5% | inhibition at 10 µM [39]: 11.9% | inhibition at 10 µM [40]: < 5% | inhibition at 10 µM [41]: 20% | inhibition at 10 µM [42]: 8.07% | inhibition at 10 µM [43]: 11.4% | inhibition at 10 µM [44]: < 5% | inhibition at 10 µM [45]: < 5% | inhibition at 10 µM [46]: 16.9% | inhibition at 10 µM [47]: < 5% | inhibition at 10 µM (U-251, CNS Cancer U251, 10 μM): 8.86% | inhibition at 10 µM [48]: 19.5% | inhibition at 10 µM [49]: < 5% | inhibition at 10 µM [50]: 38.3%

CC(=O)c1cnn(-c2cc(=O)[nH]c3ccc(C)cc23)c1C [Compound 2b, 4-(4-Acetyl-5-methyl-1H-pyrazol-1-yl)-6-methylquinolin-2(1H)-one]
inhibition at 10 µM [1]: < 5% | inhibition at 10 µM (A498, Renal cancer A498, 10 μM): < 5% | inhibition at 10 µM [2]: < 5% | inhibition at 10 µM (ACHN, Renal cancer ACHN, 10 μM): < 5% | inhibition at 10 µM [3]: < 5% | inhibition at 10 µM [4]: 8.89% | inhibition at 10 µM [5]: < 5% | inhibition at 10 µM [6]: < 5% | inhibition at 10 µM [7]: < 5% | inhibition at 10 µM [8]: < 5% | inhibition at 10 µM [9]: < 5% | inhibition at 10 µM [10]: < 5% | inhibition at 10 µM [11]: < 5% | inhibition at 10 µM [12]: 19% | inhibition at 10 µM [13]: 6.93% | inhibition at 10 µM [14]: < 5% | inhibition at 10 µM [15]: < 5% | inhibition at 10 µM [16]: < 5% | inhibition at 10 µM [17]: < 5% | inhibition at 10 µM (K562, Leukemia K-562, 10 μM): < 5% | inhibition at 10 µM (KM12, Colon cancer KM12, 10 μM): < 5% | inhibition at 10 µM [18]: 5.38% | inhibition at 10 µM (Leukemia SR, 10 μM): < 5% | inhibition at 10 µM [19]: < 5% | inhibition at 10 µM [20]: < 5% | inhibition at 10 µM [21]: < 5% | inhibition at 10 µM (MOLT-4, Leukemia MOLT-4, 10 μM): < 5% | inhibition at 10 µM [22]: < 5% | inhibition at 10 µM (Melanoma M14, 10 μM): < 5% | inhibition at 10 µM [23]: < 5% | inhibition at 10 µM [24]: < 5% | inhibition at 10 µM [25]: < 5% | inhibition at 10 µM [26]: < 5% | inhibition at 10 µM [27]: 6.79% | inhibition at 10 µM [28]: < 5% | inhibition at 10 µM [29]: < 5% | inhibition at 10 µM [30]: < 5% | inhibition at 10 µM [31]: < 5% | inhibition at 10 µM [32]: < 5% | inhibition at 10 µM (Prostate cancer PC-3, 10 μM): 4.29% | inhibition at 10 µM [33]: < 5% | inhibition at 10 µM [34]: < 5% | inhibition at 10 µM [35]: < 5% | inhibition at 10 µM [36]: < 5% | inhibition at 10 µM [37]: < 5% | inhibition at 10 µM [38]: < 5% | inhibition at 10 µM [39]: < 5% | inhibition at 10 µM [40]: < 5% | inhibition at 10 µM [41]: < 5% | inhibition at 10 µM [42]: < 5% | inhibition at 10 µM [43]: < 5% | inhibition at 10 µM [44]: < 5% | inhibition at 10 µM [45]: < 5% | inhibition at 10 µM [46]: 6.75% | inhibition at 10 µM [47]: < 5% | inhibition at 10 µM (U-251, CNS Cancer U251, 10 μM): 5.31% | inhibition at 10 µM [48]: < 5% | inhibition at 10 µM [49]: < 5% | inhibition at 10 µM [50]: 19%
